Test results reported in patent publication US6448260B2, “Endothelin receptor antagonists” (SmithKline Beecham Corporation, priority 1991, dated 2002).

Structure (SMILES) | melting point
CCCOc1cccc2c1[C@@H](c1ccc3c(c1)OCO3)[C@@H](C(=O)O)[C@H]2c1ccc(OC)cc1OCC(=O)O (racemic) [Example 91, (1RS, 2RS, 3RS)-1-(2-Carboxymethoxy-4-methoxyphenyl]-3-(3,4-methylenedioxyphenyl)-4-(prop-1-yloxy)indane-2-carboxylic acid] | 201 to 206 °C
CCCOc1ccc2c(c1)[C@H](c1ccc(OC(C)C)cc1OCC(=O)O)[C@H](C(=O)O)[C@@H]2c1ccc2c(c1)OCO2 (racemic) [Example 95, (1RS, 2RS, 3RS)-3-(2-Carboxymethoxy-4-isopropyloxyphenyl)-1-(3,4-methylenedioxyphenyl)-5-(prop-1-yloxy)indane-2-carboxylic acid] | 183 to 185 °C
CCCOc1ccc2c(c1)[C@H](c1ccc(OCC)cc1OCC(=O)O)[C@@H](C(=O)O)[C@@H]2c1ccc2c(c1)OCO2 (racemic) [Example 96, (1RS, 2SR, 3RS)-3-(2-Carboxymethoxy-4-ethyloxyphenyl)-1-(3,4-methylenedioxyphenyl)-5-(prop-1-yloxy)indane-2-carboxylic acid] | 194 to 196 °C
CCCOc1ccc2c(c1)[C@H](c1ccc(OC)cc1Oc1ncccc1C(=O)O)[C@@H](C(=O)O)[C@@H]2c1ccc2c(c1)OCO2 (racemic) [Example 98, (1RS, 2SR, 3RS)-3-[2-[(3-Carboxypyridin-2-yl)oxy]-4-methoxyphenyl]-1-(3,4-methylenedioxyphenyl)-5-(prop-1-yloxy) indane-2-carboxylic acid] | 152 to 155 °C
C=CCOc1cc(OC)ccc1[C@H]1c2cc(OCCC)ccc2[C@@H](c2ccc3c(c2)OCO3)[C@@H]1C(=O)O (racemic) [Example 100, (1RS, 2SR, 3RS)-1-(3,4-Methylenedioxyphenyl)-3-[4methoxy-2-(2-propen-1-yloxy)phenyl]-5-(prop-1-yloxy)indane-2-carboxylic acid] | 168 to 170 °C
CCCCOc1ccc2c(c1)[C@H](C1(OC)C=CC=CC1)[C@@H](C(=O)O)[C@@H]2c1ccc2c(c1)OCO2 (mixture of isomers) [Example 107, (1RS, 2SR, 3RS)-5-(But-1-yloxy)-3-(1-methoxyphenyl)-1-(3,4-methylenedioxyphenyl)indane-2-carboxylic acid] | 157 to 158 °C
CCCOc1ccc2c(c1)[C@H](c1ccc(OC)cc1OCC(=O)O)[C@@H](CNS(=O)(=O)C(F)(F)F)[C@@H]2c1ccc2c(c1)OCO2 (racemic) [Example 140, (1RS, 2SR, 3RS)-2-Trifluoromethylsulfonamidomethyl-3-(2-carboxymethoxy-4-methoxyphenyl)-1-(3,4-methylenedioxyphenyl)-5-(prop-1-yloxy)indane] | 184 to 186 °C

The next lines start with the values.

melting point | Structure (SMILES)
176 to 177 °C | CCCCc1ccc2c(c1)[C@H](c1ccc(OC)cc1OCC(=O)O)[C@@H](C(=O)O)[C@@H]2c1ccc2c(c1)OCO2 (racemic) [Example 89, (1RS, 2SR, 3RS)-5-Butyl-3-(2-carboxymethoxy-4-methoxyphenyl)-1-(3,4-methylenedioxyphenyl) indane-2-carboxylic acid]
148 to 149 °C | COc1ccc([C@@H]2c3cc(OC)ccc3[C@H](c3ccc4c(c3OC)OCO4)[C@H]2C(=O)O)cc1 (racemic) [Example 93, (1RS, 2SR, 3RS)-5-Methoxy-1-(2-methoxy-3,4-methylenedioxyphenyl)-3-(4-methoxyphenyl)indane-2-carboxylic acid]
127 to 129 °C | C=CCCOc1ccc2c(c1)[C@@H](c1ccc(OC)cc1)[C@H](C(=O)O)[C@@H]2c1ccc2c(c1)OCO2 (racemic) [Example 106, (1RS, 2SR, 3RS)-5-(3-Buten-1-yloxy)-3-(4-methoxyphenyl)-1-(3,4-methylenedioxyphenyl)indane-2-carboxylic acid]
100 to 104 °C | O=C(O)[C@H]1[C@H](c2ccc3c(c2)OCO3)c2ccc(O)cc2[C@@H]1c1ccc(OC(F)(F)F)cc1 (racemic) [Example 108, (1RS, 2RS, 3SR)-5-Hydroxy-1-(3,4-methylenedioxyphenyl)-3-(4-trifluoromethoxyphenyl)indane-2-carboxylic acid]
138 to 140 °C | COc1ccc([C@@H]2c3cc(O)ccc3[C@H](c3c[nH]c4ccccc34)[C@H]2C(=O)O)cc1 (racemic) [Example 109, (1RS, 2SR, 3RS)-5-Hydroxy-1-(3-indolyl)-3-(4-methoxyphenyl)indane-2-carboxylic acid]
191 to 193 °C | O=C(O)[C@H]1[C@H](c2ccc3c(c2)OCO3)c2ccc(OCc3ccccc3)cc2[C@@H]1c1ccc2c(c1)OCO2 (racemic) [Example 116, (1RS, 2SR, 3SR)-5-Benzyloxy-1,3-bis(3,4-methylenedioxyphenyl)indane-2 carboxylic acid]
